“And” between values parts separate entries of the source, which are not always exact repeats. Equal values may be shown once. Read-outs that look alike come from different tables or passages of the source.
Legend:
[1] = tested on: collagen-induced arthritis animal model; experiment: collagen-induced arthritis animal model (clinical score, micro-CT); assay type: in vivo, DBA/1J mice; set-up: scale not given here
Procedure: As one of the methods for evaluating the therapeutic effect of rheumatoid arthritis, the antirheumatic efficacy of each test substance was measured in a collagen-induced arthritis animal model. The experimental animals herein used were 5-week-old DBA/1J mice purchased from Central Laboratory Animals (Seoul) and acclimated in a breeding room maintained at a humidity of 50% and a temperature of 24 to 26°C for one week. Feed and water were supplied for free intake. In order to induce arthritis, type 2 collagen and CFA (complete Freund's adjuvant) were mixed to obtain an emulsion. 200 µL of the emulsion was injected subcutaneously […] into the lower part of the tail 2 to 3 cm away from the torso of DBA/1J mice, and the same amount of the emulsion was secondarily injected in […] into the lower part of the tail in the same manner as in the primary injection 21 days after exposure to a primary antigen. A positive control group was orally administered with dexamethasone at a dose of 1 mg/kg from the 22nd day after primary antigen exposure, the group administered with the Zanthoxylum piperitum leaf extract was orally treated at 100 mg/kg for 3 weeks, rheumatoid arthritis lesions were visually observed and graded, and the arthritis alleviation efficacy was measured as a clinical score.

[2] = tested on: pain response induced by formalin; experiment: formalin test; assay type: in vivo, rats; conditions: 100 mg/kg
Procedure: The formalin test is primarily used to measure the analgesic effects of drugs in chronic pain models, in which the pain stimulus and response are not temporary but persistent. The pain response induced by formalin includes phase 1 and phase 2, and these two phases can be distinguished pharmacologically. The test substance and acetaminophen or aspirin, as a positive control group, were orally administered 60 minutes before the induction of pain, 10% formalin was injected subcutaneously into the hind legs of rats, and the number of actions in response to pain was measured every 3 minutes. The action in response to pain was measured separately in phase 1 (0-12 minutes) and phase 2 (24-39 minutes).

[3] = tested on: acetic acid-induced pain model; experiment: acetic acid-induced pain model (writhing syndrome test); assay type: in vivo, ICR mice; conditions: for Pain inhibition percentage (%)(50 mg/kg, po): active ingredients; for pain inhibition effect: FIG. 3, compounds isolated from ZPE6A or ZPE6C fraction
Procedure: The acetic acid-induced writhing syndrome test is an animal model for determining analgesic effects. It is mainly used to test the effect of analgesics on the peripheral nervous system. The experimental animals used herein were 5-week-old ICR mice purchased from Central Laboratory Animals (Seoul) and acclimated in a breeding room maintained at a humidity of 50% and a temperature of 24 to 26°C for one week. Feed and water were supplied for free intake. […] The test substance was orally administered 60 minutes before the induction of pain to determine the degree of analgesic effect.

mast cell RBL-2H3 = experiment: inhibition of mast cell degranulation (β-hexosaminidase secretion); assay type: cell-based; conditions: for inhibition at 25 µg/mL / inhibition at 100 µg/mL: Rattus norvegicus
Procedure: Inhibition of inflammation-promoting cytokines has been reported to inhibit autoimmune diseases such as atopy. Thus, in the present embodiment, the mast cell RBL-2H3 was treated with the Zanthoxylum piperitum leaf extract or active compounds (quercitrin, afzelin) to evaluate the secretion inhibition ability of β-hexosaminidase. That is, the effect of inhibiting mast cell degranulation by the Zanthoxylum piperitum leaf extract or the active compound (quercitrin, afzelin) was found.

[4] = individual animals No. 1-7, extract 100 mg/kg oral 3 weeks, dexamethasone 1 mg/kg oral, listed as Positive control group
[5] = RBL-2H3, read-out: degranulation inhibitory activity compared to the ketotifen drug

Structure (SMILES)	Effect of inhibiting degranulation (% inhibition) (mast cell RBL-2H3; treatment amount 12.5 µg/mL)	Effect of inhibiting degranulation (% inhibition) (mast cell RBL-2H3; treatment amount 25 µg/mL)	Effect of inhibiting degranulation (% inhibition) (mast cell RBL-2H3; treatment amount 50 µg/mL)	Effect of inhibiting degranulation (% inhibition) (mast cell RBL-2H3; treatment amount 100 µg/mL)	pain inhibition effect [3]	also measured
C[C@@H]1C[C@H]2[C@@H]3CCC4=CC(=O)C=C[C@]4(C)[C@@]3(F)[C@@H](O)C[C@]2(C)[C@@]1(O)C(=O)CO [dexamethasone]						average score ([1]; group mean of total clinical score, control group 11.8): 6.3; visual clinical score Right back leg ([1]; individual animals No. 1-7, extract 100 mg/kg oral 3 weeks, dexamethasone 1 mg/kg oral): 1; visual clinical score Left back leg [1, 4]: 1 (5×) and 2 (2×); visual clinical score Left front leg [1, 4]: 3 (2×) and 2 (3×) and 1 (2×); visual clinical score Right front leg [1, 4]: 3 (2×) and 2 (3×) and 1 (2×); visual clinical score Total [1, 4]: 8 and 7 (2×) and 6 (2×) and 5 (2×)
CC(=O)Nc1ccc(O)cc1 [Acetaminophen]						Inhibition (%) Phase 1 ([2]; phase 1 (0-12 minutes)): 35.2%; Inhibition (%) Phase 2 ([2]; phase 2 (24-39 minutes)): 41.7%
C[C@@H]1O[C@@H](Oc2c(-c3ccc(O)c(O)c3)oc3cc(O)cc(O)c3c2=O)[C@H](O)[C@H](O)[C@H]1O [Quercitrin, quercetin-3-O-alpha-L-rhamnoside]	6.3 ± 0.13	14.3 ± 0.11	19.8 ± 0.28	22.2 ± 0.32		Pain inhibition percentage (%)(50 mg/kg, po) [3]: 69.2%; inhibition at 25 µg/mL (mast cell RBL-2H3; [5]): ~70%; inhibition at 100 µg/mL (mast cell RBL-2H3; [5]): ~50%
C[C@@H]1O[C@@H](Oc2c(-c3ccc(O)cc3)oc3cc(O)cc(O)c3c2=O)[C@H](O)[C@H](O)[C@H]1O [Afzelin, camphorol-3-O-alpha-L-rhamnoside]	25.1 ± 1.68	39.4 ± 1.06	41.3 ± 1.67	40.9 ± 0.98		Pain inhibition percentage (%)(50 mg/kg, po) [3]: 93.6%; inhibition at 25 µg/mL (mast cell RBL-2H3; RBL-2H3, treatment dose of 25 µg/mL, read-out: degranulation inhibitory activity compared to the ketotifen drug): ~195%; inhibition at 100 µg/mL (mast cell RBL-2H3; RBL-2H3, treatment dose of 100 µg/mL, read-out: degranulation inhibitory activity compared to the ketotifen drug): ~93%
O=C(O)c1ccccc1C(=O)O [1,2-benzenedicarboxylic acid]					excellent pain inhibition effects	
CC(C)(C)c1ccc(O)c(C(C)(C)C)c1 [2,4-di-tert-butylphenol]					excellent pain inhibition effects	
CN1CCC(=C2c3ccccc3CC(=O)c3sccc32)CC1 [Ketotifen]	13.8 ± 0.88	20.2 ± 0.84	32.8 ± 1.04	43.9 ± 1.45		
CC(=O)c1ccc(O)cc1 [4'-hydroxyacetophenone]					excellent pain inhibition effects	
